Assay results: patent US8703825B2, “Compounds, use thereof as medicaments, and method of preparation thereof” (Universite de Lorraine, priority 2008, dated 2014)
Converted amounts (≈) assume the structure as drawn. Like-named read-outs stand apart in the source and are kept apart here.

Legend:
Format in all cases: cell-based
[1] = tested on: Escherichia coli ATCC 25922; experiment: MIC by microdilution in liquid medium (CLSI / CA-SFM)
Text: (§1) According to the joint recommendations: • of the “Comite de l′Antibiogramme de la Société Française de Microbiologie” (Antibiogram Committee of the French Society of Microbiology) (CA-SFM) [CA-SFM. Communique 2007 (Edition of January 2007). http://www.sfm.asso.fr] and, • of the “Clinical and Laboratory Standards Institute” (CLSI, formerly “National Committee for Clinical Laboratory Standards” or NCCLS) [NCCLS. 2003. Methods for dilution antimicrobial susceptibility tests for bacteria that grow aerobically; approved standard M7-A6, 6th ed. National Committee for Clinical Laboratory Standards, Wayne, Pa., USA.], five reference bacterial strains were used for the study: Escherichia coli ATCC 25922, Pseudomonas aeruginosa ATCC 27853, Staphylococcus aureus ATCC 25923 & ATCC 29213 and Enterococcus faecalis ATCC 29212.
(§2) The bacteria are cultivated either on Mueller-Hinton agar (Difco, 225250), or in Mueller-Hinton broth (Difco, 275730), at 35° C. [Grare M, Mourer M, Fontanay S, Regnouf-de-Vains J B, Finance C, Duval R E. In vitro activity of para-guanidinoethylcalix[4]arene against susceptible and antibiotic-resistant Gram-negative and Gram-positive bacteria. J. Antimicrob Chemother. 2007; 60: 575-81].
(§3) The various molecules tested were prepared in the form of aqueous solution at 10^−2 mol/L. The solutions used for the biological tests are freshly prepared, and stored for a week at most, at 4° C. The solutions are filtered through a filter with pores of 0.22 μm (Millex®GP; 0.22 μm; Millipore; France) before each test.
(§4) Procedure for determining the Minimum Inhibitory Concentration (MIC)
(§5) The minimum inhibitory concentrations (MIC) were determined by the standardized method of microdilution in liquid medium (96-well microplate, U-shaped bottom, Greiner), in Mueller-Hinton broth, with a final inoculum of 10^5-10^6 CFU/mL, depending on the bacterial species, in accordance with the recommendations of the CLSI.
(§6) For the determination of MIC, bacterial suspensions are prepared from an isolated colony, taken from a Mueller-Hinton agar, taken up in 5 mL of Mueller-Hinton broth. After 24 h of growth, the bacterial suspensions are diluted in sterile distilled water in order to obtain an inoculum of 10^5-10^6 CFU/mL. The purity of the bacterial suspensions is tested by isolation on agar and Gram staining.
(§7) The results are the mean value of 4 independent experiments.

[2] = tested on: Staphylococcus aureus ATCC 25923; experiment: as above
Text: as §1, §2, §3, §4, §5, §6, §7

[3] = tested on: Pseudomonas aeruginosa ATCC 27853; experiment: as above; details: ATCC27853, P. aeruginosa ATCC 27853, reference strain, read-out: MIC
Text: as §1, §2, §3, §4, §5, §6, §7

[4] = tested on: Staphylococcus aureus ATCC 29213; experiment: as above; details: Staphylococcus aureus, ATCC29213, S. aureus ATCC 29213, reference strain; read-out: MIC
Text: as §1, §2, §3, §4, §5, §6, §7

[5] = tested on: Enterococcus faecalis ATCC 29212; experiment: as above; details: ATCC29212, E. faecalis ATCC 29212, reference strain, read-out: MIC
Text: as §1, §2, §3, §4, §5, §6, §7

[6] = tested on: Gram-positive and Gram-negative bacteria (reference strains and clinical isolates); experiment: Antibacterial activity overall (MIC determination); details: summary of MIC results
Text: as §1
The study also included 5 clinical isolates, obtained from rectal samples and/or from haemoculture: • […] E. coli (EcR1), • methicillin-resistant S. aureus (mecA gene) (SaR1), • vancomycin-resistant E. faecium (vanB gene) (EfR1), • E. faecalis resistant to teicoplanin and to vancomycin (vanA gene) (EfR2), and • P. aeruginosa overexpressing an efflux pump (PaRl).
as §4, §5, §6, §7

[7] = Escherichia coli, ATCC25922, E. coli ATCC 25922, reference strain, read-out: MIC
[8] = Staphylococcus aureus, ATCC25923, S. aureus ATCC 25923, reference strain, read-out: MIC
[9] = S. aureus ATCC 25923, reference strain

SMILES	MIC [1, 7] [µg/mL]	MIC [2, 8] [µg/mL]	MIC [3] [µg/mL]	MIC [4] [µg/mL]	MIC [5] [µg/mL]	antibacterial activity (in words) [6]	MIC [2, 9]	MIC ([1]; E. coli ATCC 25922, reference strain)
N=C(N)NCCc1ccc(OCOc2ccc(CCNC(=N)N)cc2)cc1 [compound 1, 1,1-bis(4-(2-guanidinoethyl)phenoxy)methane]	64 (≈ 173 µM)	16 (≈ 43.2 µM)	64 (≈ 173 µM)	8 (≈ 21.6 µM)	256 (≈ 691 µM)	–	–	–
N=C(N)NCCc1ccc(OCCCOc2ccc(CCNC(=N)N)cc2)cc1 [compound 3, 1,3-bis(4-(2-guanidinoethyl)phenoxy)propane]	32 (≈ 80.3 µM)	4 (≈ 10 µM)	64 (≈ 161 µM)	2 (≈ 5.02 µM)	128 (≈ 321 µM)	–	–	–
N=C(N)NCCc1ccc(OCCCCOc2ccc(CCNC(=N)N)cc2)cc1 [compound 4, 1,4-bis(4-(2-guanidinoethyl)phenoxy)butane]	32 (≈ 77.6 µM)	2 (≈ 4.85 µM)	64 (≈ 155 µM)	1 (≈ 2.42 µM)	64 (≈ 155 µM)	–	–	–
N=C(N)NCCc1ccc(OCCCCCCCOc2ccc(CCNC(=N)N)cc2)cc1 [compound 7, 1,7-bis(4-(2-guanidinoethyl)phenoxy)heptane]	4 (≈ 8.8 µM)	1 (≈ 2.2 µM)	16 (≈ 35.2 µM)	1 (≈ 2.2 µM)	8 (≈ 17.6 µM)	–	–	–
N=C(N)NCCc1ccc(OCCCCCCCCCOc2ccc(CCNC(=N)N)cc2)cc1 [compound 9, 1,9-bis(4-(2-guanidinoethyl)phenoxy)nonane]	1 (≈ 2.07 µM)	0.25 (≈ 0.518 µM)	4 (≈ 8.29 µM)	0.25 (≈ 0.518 µM)	1 to 2 (≈ 2.07 to 4.14 µM)	very good activities on the 5 reference strains tested	–	–
N=C(N)NCCc1ccc(OCCCCCCCCCCOc2ccc(CCNC(=N)N)cc2)cc1 [compound 10, 1,10-bis(4-(2-guanidinoethyl)phenoxy)decane]	1 to 2 (≈ 2.01 to 4.03 µM)	< 1	8 (≈ 16.1 µM)	< 1	< 1	–	–	–
N=C(N)CCc1ccc(OCCCOc2ccc(CCC(=N)N)cc2)cc1 [compound 103, 1,3-bis(4-(2-(amidino)ethyl)phenoxy)propane]	128 (≈ 347 µM)	32 (≈ 86.8 µM)	128 (≈ 347 µM)	32 (≈ 86.8 µM)	256 (≈ 695 µM)	–	–	–
N=C(N)CCc1ccc(OCCCCOc2ccc(CCC(=N)N)cc2)cc1 [compound 104, 1,4-bis(4-(2-(amidino)ethyl)phenoxy)butane]	64 (≈ 167 µM)	2 (≈ 5.23 µM)	64 (≈ 167 µM)	2 (≈ 5.23 µM)	256 (≈ 669 µM)	–	–	–
N=C(N)CCc1ccc(OCCCCCCOc2ccc(CCC(=N)N)cc2)cc1 [compound 106, 1,6-bis(4-(2-(amidino)ethyl)phenoxy)hexane]	32 (≈ 77.9 µM)	4 (≈ 9.74 µM)	32 (≈ 77.9 µM)	2 (≈ 4.87 µM)	32 (≈ 77.9 µM)	–	2 (1) mg/L	–
N=C(N)CCc1ccc(OCCCCCCCOc2ccc(CCC(=N)N)cc2)cc1 [compound 107, 1,7-bis(4-(2-(amidino)ethyl)phenoxy)heptane]	64 (≈ 151 µM)	–	64 (≈ 151 µM)	–	32 (≈ 75.4 µM)	–	–	–
N=C(N)CCc1ccc(OCCCCCCCCOc2ccc(CCC(=N)N)cc2)cc1 [compound 108, 1,8-bis(4-(2-(amidino)ethyl)phenoxy)octane]	32 (≈ 73 µM)	2 (≈ 4.56 µM)	16 (≈ 36.5 µM)	–	8 (≈ 18.2 µM)	–	4 (1) mg/L	–
N=C(N)CCc1ccc(OCCCCCCCCCCOc2ccc(CCC(=N)N)cc2)cc1 [compound 110, 1,10-bis(4-(2-(amidino)ethyl)phenoxy)decane]	4 (≈ 8.57 µM)	1 (≈ 2.14 µM)	16 (≈ 34.3 µM)	1 (≈ 2.14 µM)	2 (≈ 4.29 µM)	–	–	8 (1) mg/L
